Reference: US20150374861A1, “KIT FOR TUMOR IMAGING” (THOMAS JEFFERSON UNVERSITY, priority 2013, published 2015)
Read-outs that look alike come from different tables or passages of the source.

What was measured:
[1] = literature, Ga-67 Citrate 10 mCi, Cu-64 ATSM 25 mCi, cited from earlier work; for Effective Dose: FDG-PET/CT F-18 10 mCi, Sestamibi Tc-99m 30 mCi, FDG-PET/PM w/o CT F-18 10 mCi
[2] = test system: primary tumor site and metastatic lymph nodes; test: Whole body PET/CT imaging of breast cancer patients; assay type: in vivo, human; settings: six PET/CT patients: six primary lesions, four involved lymph nodes
Protocol: Caucasian, Hispanic, African American or Asian non-pregnant women, eighteen years of age or older, with newly diagnosed, histologically proven BC were enrolled. Image guided percutaneous biopsy was performed two to six weeks prior to this imaging procedure. Each patient signed the informed consent form. For this feasibility study, a biostatistician determined that six patients be studied with PET and thirteen with PEM. This determination was based on the assumption that Cu-64-TP3805 will detect 80% of the lesions and there will be 87% power to conclude the use of this agent to diagnosis BC.
Each patient fasted for six hours prior to F-18-FDG injection. Before F-18-FDG injection, blood sugar was monitored. Patients with sugar levels below 250 mg/DL were enrolled. […]
For Cu-64-TP3805 imaging, patients neither fasted nor were blood sugar levels determined. […]
All images were read by two board certified nuclear medicine physicians and a board certified breast imaging physician. […] For six patients with PET/CT, standardized uptake values (SUV) were calculated for the primary tumor site and metastatic lymph nodes, and compared for the respective radiotracers. Metabolic tumor volume was calculated using 50% isocontour geometry method for comparison, as it is relatively a better parameter, as compared to SUV.

Compound: O=C([O-])CC(O)(CC(=O)[O-])C(=O)[O-].[Ga+3] [Ga-67 Citrate]
- Effective Dose [1]: 39 mSv
- Liver Dose [1]: 69 mSv

Compound: OC[C@H]1O[C@@H](O)[C@H]([18F])[C@@H](O)[C@@H]1O [F-18-FDG]
- Effective Dose ([1]; listed as FDG-PET/CT): 31.9 mSv
- Effective Dose ([1]; listed as FDG-PET/PM w/o CT): 2.8 mSv
- detection of lesions [2]: ten lesions detected

Compound: CNC1=NN=C(C)C(C)=NN=C(NC)[S][64Cu][S]1 [Cu-64 ATSM]
- Effective Dose [1]: 33.3 mSv
- Liver Dose [1]: 361 mSv
